Tests used:
[1] = target: RAC-alpha serine/threonine-protein kinase (Homo sapiens) (UniProt P31749); assay: Inhibition of AKT1 (unknown origin) at 50 nM by Z'LYTE screening method relative to control
[2] = target: ALK tyrosine kinase receptor (Homo sapiens) (UniProt Q9UM73); assay: Inhibition of ALK (unknown origin) at 50 nM by Z'LYTE screening method relative to control
[3] = target: Aurora kinase B (Homo sapiens) (UniProt Q96GD4); assay: Inhibition of AURB (unknown origin) at 50 nM by Z'LYTE screening method relative to control
Aurora kinase B (Homo sapiens), sequence (Q96GD4 whole entry): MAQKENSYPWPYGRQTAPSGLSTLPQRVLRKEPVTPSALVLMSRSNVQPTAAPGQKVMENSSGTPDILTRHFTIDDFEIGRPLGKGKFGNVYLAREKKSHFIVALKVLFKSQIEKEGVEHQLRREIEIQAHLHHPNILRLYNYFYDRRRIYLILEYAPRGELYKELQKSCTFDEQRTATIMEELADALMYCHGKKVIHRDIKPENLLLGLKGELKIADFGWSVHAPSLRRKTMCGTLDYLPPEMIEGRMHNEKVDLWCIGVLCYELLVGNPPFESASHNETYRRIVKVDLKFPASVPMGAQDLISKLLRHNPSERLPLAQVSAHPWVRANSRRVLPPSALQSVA

[4] = target: CDK1/Cyclin A (Homo sapiens) (UniProt P06493+P20248); assay: Inhibition of CDK1/CyclinA (unknown origin) at 50 nM by Z'LYTE screening method relative to control; assay type: protein-complex assay
CDK1/Cyclin A (Homo sapiens), sequence (P06493 whole entry, looked up): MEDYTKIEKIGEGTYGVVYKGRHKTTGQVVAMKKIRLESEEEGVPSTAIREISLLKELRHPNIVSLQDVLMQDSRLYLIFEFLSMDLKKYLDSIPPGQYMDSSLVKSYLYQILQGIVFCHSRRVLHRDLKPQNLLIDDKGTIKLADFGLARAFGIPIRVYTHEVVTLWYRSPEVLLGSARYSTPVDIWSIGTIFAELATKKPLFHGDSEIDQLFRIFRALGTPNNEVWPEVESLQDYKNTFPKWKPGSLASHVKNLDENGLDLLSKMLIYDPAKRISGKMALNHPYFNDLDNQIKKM
CDK1/Cyclin A (Homo sapiens), sequence (P20248 whole entry, looked up): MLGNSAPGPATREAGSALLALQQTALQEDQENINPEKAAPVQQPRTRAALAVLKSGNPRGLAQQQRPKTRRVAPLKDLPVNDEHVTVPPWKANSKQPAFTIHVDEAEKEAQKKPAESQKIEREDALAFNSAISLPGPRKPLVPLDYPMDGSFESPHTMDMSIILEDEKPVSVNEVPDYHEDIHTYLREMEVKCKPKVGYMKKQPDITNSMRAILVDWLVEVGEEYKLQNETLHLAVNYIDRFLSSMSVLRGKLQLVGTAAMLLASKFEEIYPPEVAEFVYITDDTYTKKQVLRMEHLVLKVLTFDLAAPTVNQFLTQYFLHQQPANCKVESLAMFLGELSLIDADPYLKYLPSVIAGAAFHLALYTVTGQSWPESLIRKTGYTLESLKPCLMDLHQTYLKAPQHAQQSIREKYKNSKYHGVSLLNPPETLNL

Homo sapiens = species on record: Homo sapiens; assay: Inhibition of CDK1/Cyclin B (unknown origin) at 50 nM by Z'LYTE screening method relative to control
[5] = target: Receptor tyrosine-protein kinase erbB-2 (Homo sapiens) (UniProt P04626); assay: Inhibition of ERBB2 (unknown origin) at 50 nM by Z'LYTE screening method relative to control
[6] = target: Fibroblast growth factor receptor 1 (Homo sapiens) (UniProt P11362); assay: Inhibition of FGFR1 (unknown origin) at 50 nM by Z'LYTE screening method relative to control
[7] = target: Serine/threonine-protein kinase mTOR (Homo sapiens) (UniProt P42345); assay: Inhibition of FRAP1 (unknown origin) at 50 nM by Z'LYTE screening method relative to control
[8] = target: Dual specificity mitogen-activated protein kinase kinase 1 (Homo sapiens) (UniProt Q02750); assay: Inhibition of MAP2K1 (unknown origin) at 50 nM by Z'LYTE screening method relative to control
Dual specificity mitogen-activated protein kinase kinase 1 (Homo sapiens), sequence (Q02750 whole entry): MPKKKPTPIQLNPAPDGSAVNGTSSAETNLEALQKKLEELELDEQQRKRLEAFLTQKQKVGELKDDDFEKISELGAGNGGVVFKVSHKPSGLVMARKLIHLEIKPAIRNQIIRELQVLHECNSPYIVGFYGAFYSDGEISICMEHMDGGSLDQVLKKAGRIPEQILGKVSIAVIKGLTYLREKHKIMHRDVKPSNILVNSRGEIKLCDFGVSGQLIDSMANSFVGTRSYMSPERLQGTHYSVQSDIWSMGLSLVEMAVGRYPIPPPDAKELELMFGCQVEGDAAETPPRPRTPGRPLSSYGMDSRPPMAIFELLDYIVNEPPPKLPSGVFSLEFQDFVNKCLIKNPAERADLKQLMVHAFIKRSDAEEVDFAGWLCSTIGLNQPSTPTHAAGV

[9] = target: Mitogen-activated protein kinase 1 (Homo sapiens) (UniProt P28482); assay: Inhibition of MAPK1 (unknown origin) at 50 nM by Z'LYTE screening method relative to control
Mitogen-activated protein kinase 1 (Homo sapiens), sequence (P28482 whole entry): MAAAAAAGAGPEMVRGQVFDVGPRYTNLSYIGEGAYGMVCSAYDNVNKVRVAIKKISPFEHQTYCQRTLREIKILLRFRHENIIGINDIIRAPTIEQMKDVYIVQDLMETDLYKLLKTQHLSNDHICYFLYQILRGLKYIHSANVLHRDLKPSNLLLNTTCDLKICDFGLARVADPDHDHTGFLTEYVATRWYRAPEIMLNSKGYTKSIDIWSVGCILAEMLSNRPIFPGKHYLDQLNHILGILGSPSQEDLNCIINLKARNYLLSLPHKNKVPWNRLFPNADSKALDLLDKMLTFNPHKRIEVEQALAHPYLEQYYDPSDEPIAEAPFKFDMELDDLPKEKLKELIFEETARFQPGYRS

[10] = target: Mitogen-activated protein kinase 11 (Homo sapiens) (UniProt Q15759); assay: Inhibition of MAPK11 (unknown origin) at 50 nM by Z'LYTE screening method relative to control
Mitogen-activated protein kinase 11 (Homo sapiens), sequence (Q15759 whole entry): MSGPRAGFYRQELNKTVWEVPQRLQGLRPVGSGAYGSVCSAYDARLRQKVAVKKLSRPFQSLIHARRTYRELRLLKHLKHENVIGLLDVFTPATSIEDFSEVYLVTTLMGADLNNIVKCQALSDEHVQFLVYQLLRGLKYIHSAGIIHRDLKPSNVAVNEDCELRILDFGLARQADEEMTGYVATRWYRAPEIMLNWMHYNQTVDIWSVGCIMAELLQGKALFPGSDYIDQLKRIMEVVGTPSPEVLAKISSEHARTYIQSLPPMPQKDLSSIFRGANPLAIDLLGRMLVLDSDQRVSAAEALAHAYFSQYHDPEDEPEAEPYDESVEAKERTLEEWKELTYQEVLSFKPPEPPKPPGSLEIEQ

[11] = target: Serine/threonine-protein kinase PAK 1 (Homo sapiens) (UniProt Q13153); assay: Inhibition of PAK1 (unknown origin) at 50 nM by Z'LYTE screening method relative to control
[12] = target: Protein kinase C alpha type (Homo sapiens) (UniProt P17252); assay: Inhibition of PKCalpha (unknown origin) at 50 nM by Z'LYTE screening method relative to control
[13] = target: Protein kinase C beta type (Homo sapiens) (UniProt P05771); assay: Inhibition of PKCbeta1 (unknown origin) at 50 nM by Z'LYTE screening method relative to control
[14] = target: Protein kinase C beta type (Homo sapiens) (UniProt P05771); assay: Inhibition of PKCbeta2 (unknown origin) at 50 nM by Z'LYTE screening method relative to control
[15] = target: Protein kinase C delta type (Homo sapiens) (UniProt Q05655); assay: Inhibition of PKCdelta (unknown origin) at 50 nM by Z'LYTE screening method relative to control
[16] = target: T1, Protein kinase C epsilon type (Homo sapiens) (UniProt Q02156); assay: Inhibition of PKCepsilon (unknown origin) at 50 nM by Z'LYTE screening method relative to control
T1 sequence (whole entry): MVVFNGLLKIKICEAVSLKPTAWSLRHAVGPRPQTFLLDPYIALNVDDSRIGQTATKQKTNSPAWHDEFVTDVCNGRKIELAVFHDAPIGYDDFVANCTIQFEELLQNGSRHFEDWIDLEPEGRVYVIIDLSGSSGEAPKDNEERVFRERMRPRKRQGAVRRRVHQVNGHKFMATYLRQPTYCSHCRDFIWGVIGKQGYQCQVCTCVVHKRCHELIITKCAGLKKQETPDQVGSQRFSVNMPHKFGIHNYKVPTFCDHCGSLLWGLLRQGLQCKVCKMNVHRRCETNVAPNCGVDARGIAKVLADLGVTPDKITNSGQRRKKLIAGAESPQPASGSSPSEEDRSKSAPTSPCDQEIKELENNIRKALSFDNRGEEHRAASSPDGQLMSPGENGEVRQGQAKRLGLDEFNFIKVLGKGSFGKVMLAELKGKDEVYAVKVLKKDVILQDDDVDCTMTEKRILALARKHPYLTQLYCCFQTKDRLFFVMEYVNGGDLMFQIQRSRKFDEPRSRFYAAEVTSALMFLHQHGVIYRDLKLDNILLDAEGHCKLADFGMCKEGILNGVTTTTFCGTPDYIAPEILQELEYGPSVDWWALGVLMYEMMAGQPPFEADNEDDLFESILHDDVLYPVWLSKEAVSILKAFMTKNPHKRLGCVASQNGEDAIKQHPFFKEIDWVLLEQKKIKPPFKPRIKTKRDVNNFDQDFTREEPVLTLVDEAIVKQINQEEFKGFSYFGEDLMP

[17] = target: Protein kinase C eta type (Homo sapiens, UniProt P24723); assay: Inhibition of PKCeta (unknown origin) at 50 nM by Z'LYTE screening method relative to control
Protein kinase C eta type, sequence (P24723 whole entry): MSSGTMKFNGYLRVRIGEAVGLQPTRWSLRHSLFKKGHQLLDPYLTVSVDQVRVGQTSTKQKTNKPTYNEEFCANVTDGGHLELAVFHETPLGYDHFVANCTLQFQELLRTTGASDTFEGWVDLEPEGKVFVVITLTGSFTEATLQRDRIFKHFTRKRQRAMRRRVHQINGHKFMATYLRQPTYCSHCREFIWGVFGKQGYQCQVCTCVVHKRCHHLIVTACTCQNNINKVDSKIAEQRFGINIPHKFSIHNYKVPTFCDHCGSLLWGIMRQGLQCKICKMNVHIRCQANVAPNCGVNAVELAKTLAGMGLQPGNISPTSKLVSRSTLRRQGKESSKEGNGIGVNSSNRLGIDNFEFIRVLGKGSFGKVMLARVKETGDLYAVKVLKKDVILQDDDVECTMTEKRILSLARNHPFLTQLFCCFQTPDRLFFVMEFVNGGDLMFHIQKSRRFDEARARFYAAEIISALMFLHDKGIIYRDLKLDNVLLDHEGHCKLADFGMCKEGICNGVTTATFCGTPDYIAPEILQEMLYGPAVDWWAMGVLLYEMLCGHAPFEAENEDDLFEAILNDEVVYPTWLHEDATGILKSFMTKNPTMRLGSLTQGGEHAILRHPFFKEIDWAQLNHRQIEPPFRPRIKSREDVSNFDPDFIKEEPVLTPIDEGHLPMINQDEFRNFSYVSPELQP

[18] = target: Protein kinase C theta type (Homo sapiens, UniProt Q04759); assay: Inhibition of PKCtheta (unknown origin) at 50 nM by Z'LYTE screening method relative to control
Protein kinase C theta type, sequence (Q04759 whole entry, looked up): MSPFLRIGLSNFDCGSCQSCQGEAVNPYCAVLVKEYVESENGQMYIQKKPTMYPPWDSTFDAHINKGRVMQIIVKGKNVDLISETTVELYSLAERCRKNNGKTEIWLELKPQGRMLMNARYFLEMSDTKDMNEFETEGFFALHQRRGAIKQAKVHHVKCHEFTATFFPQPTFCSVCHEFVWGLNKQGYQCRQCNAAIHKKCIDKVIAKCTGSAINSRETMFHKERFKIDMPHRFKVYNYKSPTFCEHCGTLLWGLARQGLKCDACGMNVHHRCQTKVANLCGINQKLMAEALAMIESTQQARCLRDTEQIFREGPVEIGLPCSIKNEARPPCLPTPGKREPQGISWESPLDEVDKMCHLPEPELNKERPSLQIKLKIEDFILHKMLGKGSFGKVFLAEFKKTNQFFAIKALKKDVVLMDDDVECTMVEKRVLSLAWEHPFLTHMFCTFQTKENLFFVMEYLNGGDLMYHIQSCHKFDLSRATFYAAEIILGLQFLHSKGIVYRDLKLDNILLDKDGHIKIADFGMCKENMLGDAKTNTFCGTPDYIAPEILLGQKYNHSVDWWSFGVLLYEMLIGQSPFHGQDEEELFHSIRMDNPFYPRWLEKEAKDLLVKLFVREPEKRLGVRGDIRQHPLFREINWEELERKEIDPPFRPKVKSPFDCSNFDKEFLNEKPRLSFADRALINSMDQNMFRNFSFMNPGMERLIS

[19] = target: Proto-oncogene tyrosine-protein kinase Src (Homo sapiens) (UniProt P12931); assay: Inhibition of SRC (unknown origin) at 50 nM by Z'LYTE screening method relative to control
[20] = target: Tyrosine-protein kinase SYK (Homo sapiens) (UniProt P43405); assay: Inhibition of SYK (unknown origin) at 50 nM by Z'LYTE screening method relative to control
[21] = target: Tyrosine-protein kinase Yes (Homo sapiens) (UniProt P07947); assay: Inhibition of YES1 (unknown origin) at 50 nM by Z'LYTE screening method relative to control
[22] = target: Hepatocyte growth factor receptor (Homo sapiens) (UniProt P08581); assay: Inhibition of cMet (unknown origin) at 50 nM by Z'LYTE screening method relative to control
Hepatocyte growth factor receptor (Homo sapiens), sequence (P08581 whole entry): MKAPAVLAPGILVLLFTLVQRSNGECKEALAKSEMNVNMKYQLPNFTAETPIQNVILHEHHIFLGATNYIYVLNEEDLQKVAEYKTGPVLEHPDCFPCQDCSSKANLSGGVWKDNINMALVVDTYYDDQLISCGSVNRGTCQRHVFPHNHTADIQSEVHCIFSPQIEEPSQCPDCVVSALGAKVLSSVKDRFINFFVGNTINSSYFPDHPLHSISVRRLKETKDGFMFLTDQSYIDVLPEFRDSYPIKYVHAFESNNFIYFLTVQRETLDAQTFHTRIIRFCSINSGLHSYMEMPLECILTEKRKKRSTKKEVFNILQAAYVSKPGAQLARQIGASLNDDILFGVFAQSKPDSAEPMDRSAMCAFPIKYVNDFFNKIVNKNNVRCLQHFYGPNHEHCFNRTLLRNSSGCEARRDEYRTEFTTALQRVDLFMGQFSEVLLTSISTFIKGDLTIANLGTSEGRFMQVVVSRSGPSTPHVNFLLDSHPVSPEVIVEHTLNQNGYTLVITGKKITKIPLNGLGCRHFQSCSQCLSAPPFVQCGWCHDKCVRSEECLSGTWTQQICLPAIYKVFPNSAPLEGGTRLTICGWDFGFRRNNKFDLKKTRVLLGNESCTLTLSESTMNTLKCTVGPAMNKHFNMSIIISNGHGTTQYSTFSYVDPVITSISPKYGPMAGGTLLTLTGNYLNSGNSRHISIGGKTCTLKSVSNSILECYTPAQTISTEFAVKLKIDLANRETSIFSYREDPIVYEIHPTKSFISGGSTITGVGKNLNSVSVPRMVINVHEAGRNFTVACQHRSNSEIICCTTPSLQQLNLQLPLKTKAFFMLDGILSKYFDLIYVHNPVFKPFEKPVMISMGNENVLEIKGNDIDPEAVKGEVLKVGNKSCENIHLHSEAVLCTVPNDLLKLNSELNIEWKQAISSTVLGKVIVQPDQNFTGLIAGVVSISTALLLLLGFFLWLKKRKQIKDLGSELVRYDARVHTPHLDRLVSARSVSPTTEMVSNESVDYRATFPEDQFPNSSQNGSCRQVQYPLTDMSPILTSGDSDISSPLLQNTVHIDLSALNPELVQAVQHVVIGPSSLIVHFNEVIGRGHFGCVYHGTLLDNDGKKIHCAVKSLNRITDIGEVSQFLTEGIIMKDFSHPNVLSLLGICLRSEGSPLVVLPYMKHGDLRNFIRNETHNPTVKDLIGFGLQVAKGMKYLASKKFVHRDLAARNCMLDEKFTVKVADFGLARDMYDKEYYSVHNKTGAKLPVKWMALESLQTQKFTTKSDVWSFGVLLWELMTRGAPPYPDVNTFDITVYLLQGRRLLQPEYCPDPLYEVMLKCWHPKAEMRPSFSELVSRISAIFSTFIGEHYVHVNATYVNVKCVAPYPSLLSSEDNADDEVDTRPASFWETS

[23] = target: PI3-kinase p110-alpha/p85-alpha (Homo sapiens) (UniProt P27986+P42336); assay: Inhibition of p110alpha/p85alpha (unknown origin) at 50 nM by Z'LYTE screening method relative to control; assay type: protein-complex assay
[24] = target: Proto-oncogene tyrosine-protein kinase receptor Ret (Homo sapiens) (UniProt P07949); assay: Inhibition of RET (unknown origin) at 50 nM by Z'LYTE screening method relative to control
MDA-MB-231 = assay: Cytotoxicity against human MDA-MB-231/M cells assessed as reduction in cell viability incubated for 96 hrs by MTT assay; assay type: functional, cell-based; settings: MDA-MB-231, 96 h
4T1 = assay: Cytotoxicity against mouse 4T1 cells assessed as reduction in cell viability incubated for 96 hrs by MTT assay; assay type: functional, cell-based; settings: 4T1, 96 h

Row | SMILES | inhibition [1] [%] | inhibition [2] [%] | inhibition [3] [%] | inhibition [4] [%] | inhibition (Homo sapiens) [%] | inhibition [5] [%] | inhibition [6] [%] | inhibition [7] [%] | inhibition [8] [%] | inhibition [9] [%] | inhibition [10] [%] | inhibition [11] [%] | inhibition [12] [%] | inhibition [13] [%] | inhibition [14] [%] | inhibition [15] [%] | inhibition [16] [%] | inhibition [17] [%] | inhibition [18] [%] | inhibition [19] [%] | further results
1 | O=C1c2ccccc2CN1c1nc(N[C@H]2CC[Se]C2)c2nc[nH]c2n1 | 1 | 0 | 9 | 1 | 0 | 1 | 0 | 2 | 3 | 0 | 3 | 0 | 3 | 7 | 9 | 0 | 2 | 3 | 14 | 0 | inhibition [20]: 1%; inhibition [21]: 12%; inhibition [22]: 0%; inhibition [23]: 0%; inhibition [24]: 2%; IC50 (MDA-MB-231): 26.1 µM; IC50 (4T1): 27.2 µM
2 | CCN(CC)CCCC(C)Nc1nc(N2Cc3ccccc3C2=O)nc2[nH]cnc12 (stereo unspecified) | 2 | 0 | 5 | 1 | 1 | 0 | 0 | 0 | 5 | 2 | 3 | 2 | 3 | 5 | 25 | 0 | 4 | 2 | 12 | 0 | inhibition [20]: 2%; inhibition [21]: 9%; inhibition [22]: 2%; inhibition [23]: 0%; inhibition [24]: 2%; IC50 (MDA-MB-231): 22.1 µM; IC50 (4T1): 13.3 µM
3 | C[C@@H]1[C@H]2C[C@@H](C[C@H]1Nc1nc(-n3[se]c4ccccc4c3=O)nc3[nH]cnc13)C2(C)C | 0 | 1 | 6 | 2 | 1 | 0 | 0 | 1 | 5 | 1 | 4 | 1 | 10 | 5 | 5 | 0 | 2 | 1 | 16 | 0 | inhibition [20]: 1%; inhibition [21]: 7%; inhibition [22]: 1%; inhibition [23]: 0%; inhibition [24]: 2%; IC50 (MDA-MB-231): 47.7 µM; IC50 (4T1): 33.6 µM
